Results reported in ChEMBL document CHEMBL4619778, “Oligopeptides as Neuropeptide Y Y4 Receptor Ligands: Identification of a High-Affinity Tetrapeptide Agonist and a Hexapeptide Antagonist” (J Med Chem, 2020).
pEC50, pKi: −log10 of the molar value. Bridge positions count the residues as written; N and C are the ends. Square brackets hold non-standard residues; d marks the D form. Peptide text beside a SMILES is read from it. I, II: the chains in the order shown. ξ: configuration not given here. ξDap = NCC(N)C(=O)O

Columns and labels:
[1] = target: T1, Neuropeptide Y receptor type 4 (Homo sapiens, UniProt P50391); assay: Displacement of [3H]UR-KK200 from human Y4 receptor expressed in CHO cells co-expressing Gqi5-mtAEQ measured after 90 mins by scintillation counting analysis; format: cell-based; conditions: for pKi: read-out: Ki; for Ki: read-out: pKi (converted)
T1 sequence (P50391 whole entry): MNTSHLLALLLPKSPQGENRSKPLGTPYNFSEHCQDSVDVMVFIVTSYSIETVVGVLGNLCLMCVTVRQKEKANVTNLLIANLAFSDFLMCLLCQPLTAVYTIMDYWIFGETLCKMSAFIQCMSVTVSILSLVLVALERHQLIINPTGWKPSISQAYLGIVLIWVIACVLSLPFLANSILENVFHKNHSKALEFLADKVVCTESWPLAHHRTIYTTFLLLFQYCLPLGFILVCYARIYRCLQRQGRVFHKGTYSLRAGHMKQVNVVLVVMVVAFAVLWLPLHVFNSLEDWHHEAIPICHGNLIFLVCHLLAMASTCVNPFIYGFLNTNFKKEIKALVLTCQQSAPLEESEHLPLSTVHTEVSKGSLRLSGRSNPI

[2] = target: T2, Neuropeptide Y receptor type 1 (Homo sapiens, UniProt P25929); assay: Displacement of [3H]UR-MK299 from Y1 receptor in human SK-N-MC cells; format: cell-based; conditions: for pKi: read-out: Ki; for Ki: read-out: pKi (converted)
T2 sequence (P25929 whole entry): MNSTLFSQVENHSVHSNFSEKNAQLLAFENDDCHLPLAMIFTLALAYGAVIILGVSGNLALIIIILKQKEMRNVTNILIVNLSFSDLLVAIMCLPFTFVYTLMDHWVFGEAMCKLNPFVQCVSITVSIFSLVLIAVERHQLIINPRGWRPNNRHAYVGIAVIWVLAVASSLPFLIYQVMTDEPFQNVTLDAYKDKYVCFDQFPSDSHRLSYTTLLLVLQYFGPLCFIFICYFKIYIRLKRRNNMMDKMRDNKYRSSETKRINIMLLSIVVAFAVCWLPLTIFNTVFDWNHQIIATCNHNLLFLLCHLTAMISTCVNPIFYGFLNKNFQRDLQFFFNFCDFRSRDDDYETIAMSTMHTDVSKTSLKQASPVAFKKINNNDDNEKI

[3] = target: T3, Neuropeptide Y receptor type 2 (Homo sapiens, UniProt P49146); assay: Displacement of [3H]propionyl-pNPY from human Y2 receptor expressed in CHO cells measured after 2 hrs by microbeta liquid scintillation counting analysis; format: cell-based; conditions: for pKi: read-out: Ki; for Ki: read-out: pKi (converted)
T3 sequence (P49146 whole entry): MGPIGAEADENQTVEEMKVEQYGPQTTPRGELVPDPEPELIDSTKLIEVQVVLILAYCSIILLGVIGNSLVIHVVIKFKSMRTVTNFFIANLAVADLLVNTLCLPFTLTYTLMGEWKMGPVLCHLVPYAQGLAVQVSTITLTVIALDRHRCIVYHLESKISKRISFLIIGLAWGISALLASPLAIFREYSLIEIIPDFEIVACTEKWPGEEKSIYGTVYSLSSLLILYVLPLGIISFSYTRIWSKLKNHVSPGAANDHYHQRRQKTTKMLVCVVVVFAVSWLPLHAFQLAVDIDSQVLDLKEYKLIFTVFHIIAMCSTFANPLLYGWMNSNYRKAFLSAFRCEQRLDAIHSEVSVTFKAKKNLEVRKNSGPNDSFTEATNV

[4] = target: T4, Neuropeptide Y receptor type 5 (Homo sapiens, UniProt Q15761); assay: Displacement of [3H]propionyl-pNPY from human Y5 receptor expressed in human HEC1B cells; format: cell-based; conditions: for pKi: read-out: Ki; for Ki: read-out: pKi (converted)
T4 sequence (Q15761 whole entry): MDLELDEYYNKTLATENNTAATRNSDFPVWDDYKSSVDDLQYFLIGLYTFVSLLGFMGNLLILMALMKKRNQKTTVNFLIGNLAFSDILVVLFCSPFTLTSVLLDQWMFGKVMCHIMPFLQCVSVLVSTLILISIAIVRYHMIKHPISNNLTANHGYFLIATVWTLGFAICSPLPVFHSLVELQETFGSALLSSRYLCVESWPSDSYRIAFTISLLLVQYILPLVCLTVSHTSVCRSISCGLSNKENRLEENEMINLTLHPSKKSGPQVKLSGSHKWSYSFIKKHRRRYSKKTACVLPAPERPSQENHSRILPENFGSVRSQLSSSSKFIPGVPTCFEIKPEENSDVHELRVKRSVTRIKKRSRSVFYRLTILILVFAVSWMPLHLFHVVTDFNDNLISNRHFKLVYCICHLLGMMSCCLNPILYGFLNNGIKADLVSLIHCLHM

Homo sapiens [5] = species: Homo sapiens; assay: Selectivity ratio of Ki for displacement of [3H]UR-MK299 from Y1 receptor in human SK-N-MC cells to Ki for displacement of [3H]UR-KK200 from human Y4 receptor expressed in CHO cells co-expressing Gqi5-mtAEQ; format: cell-based
Homo sapiens [6] = species: Homo sapiens; assay: Selectivity ratio of Ki for displacement of [3H]propionyl-pNPY from human Y2 receptor expressed in CHO cells to Ki for displacement of [3H]UR-KK200 from human Y4 receptor expressed in CHO cells co-expressing Gqi5-mtAEQ; format: cell-based
Homo sapiens [7] = species: Homo sapiens; assay: Selectivity ratio of Ki for displacement of [3H]propionyl-pNPY from human Y5 receptor expressed in human HEC1B cells to Ki for displacement of [3H]UR-KK200 from human Y4 receptor expressed in CHO cells co-expressing Gqi5-mtAEQ; format: cell-based
[8] = target: T1, Neuropeptide Y receptor type 4; assay: Agonist activity at human Y4R expressed in HEK293T cells co-expressing ARRB1 assessed as induction of beta-arrestin1 recruitment measured for 40 mins by D-luciferin based luminescence assay; format: cell-based, HEK-293T; conditions: for pEC50: read-out: EC50; for EC50: read-out: pEC50 (converted)
[9] = target: T1, Neuropeptide Y receptor type 4; assay: Agonist activity at human Y4R expressed in HEK293T cells co-expressing ARRB2 assessed as induction of beta-arrestin2 recruitment measured for 40 mins by D-luciferin based luminescence assay; format: cell-based, HEK-293T; conditions: for pEC50: read-out: EC50; for EC50: read-out: pEC50 (converted)
[10] = target: T1, Neuropeptide Y receptor type 4; assay: Agonist activity at human Y4 receptor expressed in CHO cells co-expressing Gqi5-mtAEQ assessed as intracellular calcium mobilization measured for 43 secs in presence of coelenterazine by aequorin-reporter gene based luminescence assay; format: functional, cell-based; conditions: for pEC50: read-out: EC50; for EC50: read-out: pEC50 (converted)

Molecule	pKi [1]	Ki [1] [µM]	pKi [2]	pKi [3]	pKi [4]	Ratio Ki (Homo sapiens [5])	Ratio Ki (Homo sapiens [6])	Ratio Ki (Homo sapiens [7])	pEC50 [8]	EC50 [8] [µM]	pEC50 [9]	EC50 [9] [µM]	pEC50 [10]	EC50 [10] [µM]	Ki [2] [µM]	pKi ([3]; cho)	Ki [3] [µM]	Ki [4] [µM]
CC(=O)N[C@@H](CCCNC(=N)N)C(=O)N[C@@H](Cc1ccc(O)cc1)C(=O)N[C@@H](CCCNC(=N)N)C(=O)N[C@@H](CC(C)C)C(=O)N[C@@H](CCCNC(=N)N)C(=O)N[C@@H](Cc1ccc(O)cc1)C(N)=O	8.44 to 8.47	0.00372	< 5.52	< 5.52	< 5.52	> 830	> 830	> 830	6.77	0.162	6.92	0.112	6.72	0.182	–	–	–	–
CC(C)C[C@@H](NC(=O)[C@@H](N)CCCNC(=N)N)C(=O)N[C@@H](CCCNC(=N)N)C(=O)N[C@@H](Cc1ccc(O)cc1)C(N)=O	7.03	–	–	–	–	–	–	–	< 4.52	> 31.6	< 4.52	> 31.6	–	–	–	–	–	–
CC(=O)N[C@@H](CCCNC(=N)N)C(=O)N[C@@H](Cc1ccc(O)cc1)C(=O)N[C@@H](CCCNC(N)=O)C(=O)N[C@@H](CC(C)C)C(=O)N[C@@H](CCCNC(=N)N)C(=O)N[C@@H](Cc1ccc(O)cc1)C(N)=O	6.92	–	–	–	–	–	–	–	< 4.52	> 31.6	< 4.52	> 31.6	< 4.52	> 31.6	–	–	–	–
CC(C)C[C@H](NC(=O)[C@H](CCCNC(=N)N)NC(=O)[C@H](Cc1ccc(O)cc1)NC(=O)[C@@H](N)CCCNC(=N)N)C(=O)N[C@@H](CCCNC(N)=O)C(=O)N[C@@H](Cc1ccc(O)cc1)C(N)=O	7.20	0.0562	< 5.52	–	–	> 48	–	–	5.97	–	6.03	–	–	–	> 3.16	–	–	–
CN[C@@H](CCCNC(=N)N)C(=O)N[C@@H](CC(C)C)C(=O)N[C@@H](CCCNC(=N)N)C(=O)N[C@@H](Cc1ccc(O)cc1)C(N)=O	8.41	–	< 5.52	–	< 5.00	> 770	> 260	> 2600	5.60	–	5.92	–	–	–	> 3.16	< 6.00	> 1	> 10
CC(C)C[C@H](NC(=O)[C@@H](N)CCCNC(=N)N)C(=O)N[C@@H](CCCNC(=N)N)C(=O)N[C@H](Cc1ccc(O)cc1)C(N)=O	5.82	–	–	–	–	–	–	–	< 4.52	> 31.6	< 4.52	> 31.6	–	–	–	–	–	–
CC(C)C[C@H](NC(=O)[C@@H](N)CCCNC(=N)N)C(=O)N[C@H](CCCNC(=N)N)C(=O)N[C@@H](Cc1ccc(O)cc1)C(N)=O	5.89	–	–	–	–	–	–	–	< 4.52	> 31.6	< 4.52	> 31.6	–	–	–	–	–	–
CC(C)C[C@H](NC(=O)[C@H](CCCNC(=N)N)NC(=O)[C@H](Cc1ccc(O)cc1)NC(=O)[C@@H](N)CCCNC(N)=O)C(=O)N[C@@H](CCCNC(=N)N)C(=O)N[C@@H](Cc1ccc(O)cc1)C(N)=O	8.32	0.00447	< 5.52	< 5.52	< 5.00	> 630	> 630	> 2100	7.00	–	6.82	–	–	–	> 3.16	–	> 3.16	> 10
CC(C)C[C@H](NC(=O)[C@H](N)CCCNC(=N)N)C(=O)N[C@@H](CCCNC(=N)N)C(=O)N[C@@H](Cc1ccc(O)cc1)C(N)=O	8.13	–	–	–	–	–	–	–	5.62	–	5.32	4.68	–	–	–	–	–	–
CC(C)C[C@H](NC(=O)[C@H](CCCNC(=N)N)NC(=O)[C@H](Cc1ccc(O)cc1)NC(=O)[C@@H](N)CCCNC(=N)N)C(=O)N[C@@H](CCCNC(=N)N)C(=O)N[C@@H](Cc1ccc(O)cc1)C(N)=O	8.70	–	< 5.52	–	< 5.52	> 1500	> 5000	> 1500	7.29	–	7.42	–	7.00	–	> 3.16	< 5.00	> 10	> 3.16
N=C(N)NCCC[C@H](NC(=O)[C@H](Cc1c[nH]c2ccccc12)NC(=O)[C@@H](N)CCCNC(=N)N)C(=O)N[C@@H](Cc1ccc(O)cc1)C(N)=O (H-RWRY-NH2)	6.46	–	–	–	–	–	–	–	< 4.52	> 31.6	< 4.52	> 31.6	< 4.52	> 31.6	–	–	–	–
CC[C@H](C)[C@H](N)C(=O)N[C@H]1CCC(=O)NCC(C(=O)N[C@@H](Cc2ccc(O)cc2)C(=O)N[C@@H](CCCNC(=N)N)C(=O)N[C@@H](CC(C)C)C(=O)N[C@@H](CCCNC(=N)N)C(=O)N[C@@H](Cc2ccc(O)cc2)C(N)=O)NC(=O)[C@@H]2CCCN2C(=O)[C@@H](NC(=O)[C@@H](N)[C@@H](C)CC)CCC(=O)NCC(C(=O)N[C@@H](Cc2ccc(O)cc2)C(=O)N[C@@H](CCCNC(=N)N)C(=O)N[C@@H](CC(C)C)C(=O)N[C@@H](CCCNC(=N)N)C(=O)N[C@@H](Cc2ccc(O)cc2)C(N)=O)NC(=O)[C@@H]2CCCN2C1=O (stereo not given in full) (I: H-IEP[ξDap]YRLRY-NH2 / II: H-IEP[ξDap]YRLRY-NH2; amide I:2-II:4, I:4-II:2)	9.44	–	–	–	–	–	–	–	–	–	–	–	–	–	–	–	–	–
Ac-RYRPRY-NH2	5.74	–	–	–	–	–	–	–	< 4.52	> 31.6	< 4.52	> 31.6	< 4.52	> 31.6	–	–	–	–
H-RYRARY-NH2	6.62	0.229	–	–	–	–	–	–	< 4.52	> 31.6	< 4.52	> 31.6	< 4.52	> 31.6	–	–	–	–
H-RYRGRY-NH2	6.72	–	–	–	–	–	–	–	< 4.52	> 31.6	< 4.52	> 31.6	< 4.52	> 31.6	–	–	–	–
